In patent publication EP4603105A1, “PHARMACEUTICAL COMPOSITION CONTAINING CYCLIC COMPOUND HAVING SELECTIVE KRAS INHIBITORY EFFECT AGAINST HRAS AND NRAS” (CHUGAI SEIYAKU KABUSHIKI KAISHA, priority 2022, dated 2024):
Where two headings read alike, the source gives them in different places. Where a SMILES comes first, the peptide text is derived from it. Bridges are numbered along the chain shown (N, C = ends). [ ]: non-standard residue; d: D form. The star is where a group is joined. hPhe(3,5-F2-4-CF3) = N[C@@H](CCc1cc(F)c(C(F)(F)F)c(F)c1)C(=O)O; hPhe(3-Cl-4-CF3) = N[C@@H](CCc1ccc(C(F)(F)F)c(Cl)c1)C(=O)O; NPrPhe(4-CF3) = CCCN[C@@H](Cc1ccc(C(F)(F)F)cc1)C(=O)O; NMeGly(cPent) = CN[C@H](C(=O)O)C1CCCC1; αMeI = CC[C@H](C)[C@](C)(N)C(=O)O; NMeD = CN[C@@H](CC(=O)O)C(=O)O; NMeL = CN[C@@H](CC(C)C)C(=O)O; Morpholide = C1CN(*)CCO1; NMeA = CN[C@@H](C)C(=O)O; Piperidide = C1CCN(*)CC1; Ac5c = NC1(C(=O)O)CCCC1; Aze = O=C(O)[C@@H]1CCN1; Ac4c = NC1(C(=O)O)CCC1; Sar = CNCC(=O)O

Assays:
[1] = tested on: human lung cancer strain NCI-H441; type: cell-based
Outline: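 Step one: dispense the test compound in serial DMSO dilutions. Step three: add the reagent and measure […].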

HRAS wild-type protein = HRAS wild-type protein (Homo sapiens, UniProt P01112); experiment: Binding to HRAS by surface plasmon resonance (SPR), KD and KD ratio to KRAS
HRAS wild-type protein, sequence (P01112 whole entry): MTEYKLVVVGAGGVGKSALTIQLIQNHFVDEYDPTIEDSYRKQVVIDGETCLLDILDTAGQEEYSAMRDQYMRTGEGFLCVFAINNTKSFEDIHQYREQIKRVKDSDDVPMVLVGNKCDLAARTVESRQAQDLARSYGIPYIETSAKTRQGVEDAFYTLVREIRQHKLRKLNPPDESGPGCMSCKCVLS
Outline: (§1)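 Running buffer contained 10 µM GDP and 10 mM MgCl2 to keep RAS in the GDP state, with 4% DMSO at pH 7.4. Compounds were flowed at 100 µL/min in 75 s steps of rising concentration over captured biotin-Avi RAS at 30°C. Sensorgrams were fitted 1:1 for KD.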

[2] = molecular target: GDP-bound NRAS wild-type protein (Homo sapiens, UniProt P01111); experiment: Binding to NRAS by surface plasmon resonance (SPR), KD and KD ratio to KRAS
GDP-bound NRAS wild-type protein, sequence (P01111 whole entry): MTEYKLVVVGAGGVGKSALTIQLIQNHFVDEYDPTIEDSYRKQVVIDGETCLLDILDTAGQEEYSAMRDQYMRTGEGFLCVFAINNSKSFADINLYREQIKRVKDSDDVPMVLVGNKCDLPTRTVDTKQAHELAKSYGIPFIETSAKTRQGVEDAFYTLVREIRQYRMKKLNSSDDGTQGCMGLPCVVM
Outline: as §1

[3] = ratio of KD for HRAS wild-type protein to KD for KRAS
[4] = ratio of KD for GDP-bound NRAS wild-type protein to KD for KRAS
[5] = ratio of the KD value with respect to HRAS wild-type protein to the KD value with respect to KRAS
[6] = ratio of the KD value with respect to GDP-bound NRAS wild-type protein to the KD value with respect to KRAS

Structure (SMILES)	IC50 [1] [nM]	HRAS /KRAS (HRAS wild-type protein; [3])	NRAS /KRAS [2, 4]	HRAS /KRAS (HRAS wild-type protein; [5])	NRAS /KRAS [2, 6]	IC50 ([1]; NCI-H441 cells, 4 days, CellTiter-Glo, read-out: NCl-H441 IC50) [nM]
CCO[C@@H]1C[C@H]2C(=O)NC3(CCCC3)C(=O)N(C)[C@@H](C3CCCC3)C(=O)N(C)[C@H](C(=O)N(C)C)CC(=O)N(C)[C@@H](CC)C(=O)N[C@@H]([C@@H](C)CC)C(=O)N(C)CC(=O)N(C)[C@H]3CC(C)=CCN(C3=O)[C@@H](Cc3ccc(C(F)(F)F)cc3)C(=O)N(C)CC(=O)N[C@@H](CCc3cc(F)c(C(F)(F)F)c(F)c3)C(=O)N2C1 [PP1036]	150	C (A compound having a KD ratio of 0.1 or more and less than 3 is denoted as C)	C (A compound having a KD ratio of 0.1 or more and less than 3 is denoted as C)	–	–	–
CCCN1C(=O)CN(C)C(=O)[C@@H]2CCN2C(=O)[C@H]([C@@H](C)CC)NC(=O)[C@H](CC(C)C)N(C)C(=O)C[C@@H](C(=O)N2CCOCC2)N(C)C(=O)[C@H](C2CCCC2)N(C)C(=O)[C@](C)([C@@H](C)CC)NC(=O)[C@@H]2CCCN2C(=O)[C@H](CCc2cc(F)c(C(F)(F)F)c(F)c2)NC(=O)CN(C)C(=O)[C@@H]1Cc1ccc(C(F)(F)F)cc1 [PP0774] ([NMeL]I[Aze][Sar][NPrPhe(4-CF3)][Sar][hPhe(3,5-F2-4-CF3)]P[αMeI][NMeGly(cPent)][NMeD]-Morpholide; lactam N-11)	478	B (a compound having 3 or more and less than 10 is denoted as B)	B (a compound having 3 or more and less than 10 is denoted as B)	–	–	–
CCCN1C(=O)[C@@H]2CCN2C(=O)[C@H](C)N(C)C(=O)[C@H]([C@@H](C)CC)NC(=O)[C@H](CC(C)C)N(C)C(=O)C[C@@H](C(=O)N2CCCCC2)N(C)C(=O)[C@H](C2CCCC2)N(C)C(=O)C2(CCCC2)NC(=O)[C@@H]2CCCN2C(=O)[C@H](CCc2ccc(C(F)(F)F)c(Cl)c2)NC(=O)CN(C)C(=O)[C@@H]1Cc1ccc(C(F)(F)F)cc1 [PP0180] ([NMeL]I[NMeA][Aze][NPrPhe(4-CF3)][Sar][hPhe(3-Cl-4-CF3)]P[Ac5c][NMeGly(cPent)][NMeD]-Piperidide; lactam N-11)	7.5	C (A compound having a KD ratio of 0.1 or more and less than 3 is denoted as C)	C (A compound having a KD ratio of 0.1 or more and less than 3 is denoted as C)	–	–	–
CCCN1C(=O)[C@@H]2CCN2C(=O)CN(C)C(=O)[C@H]([C@@H](C)CC)NC(=O)[C@H](CC(C)C)N(C)C(=O)C[C@@H](C(=O)N2CCOCC2)NC(=O)[C@H](C2CCCC2)N(C)C(=O)C2(CCC2)NC(=O)[C@@H]2CCCN2C(=O)[C@H](CCc2ccc(C(F)(F)F)c(Cl)c2)NC(=O)CN(C)C(=O)[C@@H]1Cc1ccc(C(F)(F)F)cc1 [PP0350] ([NMeL]I[Sar][Aze][NPrPhe(4-CF3)][Sar][hPhe(3-Cl-4-CF3)]P[Ac4c][NMeGly(cPent)]D-Morpholide; lactam N-11)	69.8	B (a compound having 3 or more and less than 10 is denoted as B)	C (A compound having a KD ratio of 0.1 or more and less than 3 is denoted as C)	–	–	–
CCO[C@@H]1C[C@H]2C(=O)NC3(CC(C)(C)C3)C(=O)N(C)[C@@H](C(CC)CC)C(=O)N(C)[C@H](C(=O)N(C)C)CC(=O)N(C)[C@@H](CC)C(=O)N[C@@H]([C@@H](C)CC)C(=O)N(C)CC(=O)N(C)[C@H]3C/C=C\CCN(C3=O)[C@@H](Cc3ccc(C)cc3)C(=O)N(C)CC(=O)N[C@@H](CCc3ccc(C(F)(F)F)c(OC)c3)C(=O)N2C1 [PP2170]	8.5	–	–	A (a compound having 10 or more and less than 20 is denoted as A)	A (a compound having 10 or more and less than 20 is denoted as A)	–
CCO[C@@H]1C[C@H]2C(=O)NC3(CC(C)(C)C3)C(=O)N(C)[C@@H](C(CC)CC)C(=O)N(C)[C@H](C(=O)N3CCCC3)CC(=O)N(C)[C@@H](COC)C(=O)N[C@@H]([C@@H](C)CC)C(=O)N(C)CC(=O)N(C)[C@H]3C/C=C\CCN(C3=O)[C@@H](Cc3ccc(C(F)(F)F)cc3)C(=O)N(C)CC(=O)N[C@@H](CCc3ccc(C(F)(F)F)c(Cl)c3)C(=O)N2C1 [PP2128]	14.8	–	–	A (a compound having 10 or more and less than 20 is denoted as A)	AA (a compound having 20 or more is denoted as AA)	–
C#CCN1CC(=O)N(C)[C@H]2C/C=C\CCN(C2=O)[C@@H](Cc2ccc(C)cc2)C(=O)N(C)CC(=O)N[C@@H](CCc2cc(F)c(C(F)(F)F)c(F)c2)C(=O)N2C[C@H](OCC)C[C@H]2C(=O)NC2(CC(C)(C)C2)C(=O)N(C)[C@@H](C2CCCC2)C(=O)N(C)[C@H](C(=O)N(C)C)CC(=O)N(C)[C@@H](CCC)C(=O)N[C@@H]([C@@H](C)CC)C1=O [PP2095]	5.7	–	–	A (a compound having 10 or more and less than 20 is denoted as A)	A (a compound having 10 or more and less than 20 is denoted as A)	–
CCC[C@H]1C(=O)N[C@@H]([C@@H](C)CC)C(=O)N(C)CC(=O)N(C)[C@H]2C/C=C\CCN(C2=O)[C@@H](Cc2ccc(C(F)(F)F)cc2)C(=O)N(C)CC(=O)N[C@@H](CCc2cc(C)c(C(F)F)c(C)c2)C(=O)N2C[C@H](OCC)C[C@H]2C(=O)NC2(CC(C)(C)C2)C(=O)N(C)[C@@H](C2CCCC2)C(=O)N(C)[C@H](C(=O)N(C)C)CC(=O)N1C [PP2857]	–	A (a compound having 10 or more and less than 20 is denoted as A)	A (a compound having 10 or more and less than 20 is denoted as A)	–	–	61.6
CCC[C@H]1C(=O)N[C@@H]([C@@H](C)CC)C(=O)N(C)CC(=O)N(C)[C@H]2C/C=C\CCN(C2=O)[C@@H](Cc2ccc(C)cc2)C(=O)N(C)CC(=O)N[C@@H](CCc2ccc(C(F)(F)F)c(Cl)c2)C(=O)N2C[C@H](OCC)C[C@H]2C(=O)NC2(CC(C)(C)C2)C(=O)N(C)[C@@H](C(CC)CC)C(=O)N(C)[C@H](C(=O)N(C)C)CC(=O)N1C [PP2146]	8.2	–	–	A (a compound having 10 or more and less than 20 is denoted as A)	A (a compound having 10 or more and less than 20 is denoted as A)	–
CC[C@H](C)[C@@H]1NC(=O)[C@H](COC)N(C)C(=O)C[C@@H](C(=O)N2CCOCC2)N(C)C(=O)[C@H](C2CCCC2)N(C)C(=O)C2(CCCC2)NC(=O)[C@@H]2CCCN2C(=O)[C@H](CCc2cc(F)c(C(F)(F)F)c(F)c2)NC(=O)CN(C)C(=O)[C@H](Cc2ccc(C(F)(F)F)cc2)N2CCCCC[C@@H](C2=O)N(C)C(=O)CN(C)C1=O [PP0845]	135	B (a compound having 3 or more and less than 10 is denoted as B)	B (a compound having 3 or more and less than 10 is denoted as B)	–	–	–
CCCN1C(=O)[C@@H]2CCN2C(=O)[C@H](C)N(C)C(=O)[C@H]([C@@H](C)CC)NC(=O)[C@H](CC(C)C)N(C)C(=O)C[C@@H](C(=O)N2CCOCC2)N(C)C(=O)[C@H](C2CCCC2)N(C)C(=O)C2(CCCC2)NC(=O)CN(C)C(=O)[C@H](CCc2ccc(C(F)(F)F)c(Cl)c2)NC(=O)CN(C)C(=O)[C@@H]1Cc1ccc(C(F)(F)F)cc1 [PP0287] ([NMeL]I[NMeA][Aze][NPrPhe(4-CF3)][Sar][hPhe(3-Cl-4-CF3)][Sar][Ac5c][NMeGly(cPent)][NMeD]-Morpholide; lactam N-11)	14.5	C (A compound having a KD ratio of 0.1 or more and less than 3 is denoted as C)	C (A compound having a KD ratio of 0.1 or more and less than 3 is denoted as C)	–	–	–
CC[C@H](C)[C@@H]1NC(=O)[C@H](C2CCC2)N(C)C(=O)C[C@@H](C(=O)N(C)CC)N(C)C(=O)[C@H](C2CCCC2)N(C)C(=O)C2(CCC2)NC(=O)[C@@H]2C[C@H](C)CN2C(=O)[C@H](CCc2ccc(C(F)(F)F)c(OC)c2)NC(=O)CN(C)C(=O)[C@H](Cc2ccc(C(F)(F)F)cc2)N2CC/C=C\C[C@@H](C2=O)N(C)C(=O)CN(C)C1=O [PP2071]	6.2	–	–	A (a compound having 10 or more and less than 20 is denoted as A)	A (a compound having 10 or more and less than 20 is denoted as A)	–
CC[C@H](C)[C@@H]1NC(=O)[C@H](CC(C)C)N(C)C(=O)C[C@@H](C(=O)N2CCOCC2)N(C)C(=O)[C@H](C2CCCC2)N(C)C(=O)C2(CCCC2)NC(=O)[C@@H]2CCCN2C(=O)[C@H](CCc2ccc(C(F)(F)F)c(Cl)c2)NC(=O)CN(C)C(=O)[C@H](Cc2ccc(F)cc2)N2CCCCC[C@@H](C2=O)N(C)C(=O)CN(C)C1=O [PP0612]	43.3	–	–	B (a compound having 3 or more and less than 10 is denoted as B)	B (a compound having 3 or more and less than 10 is denoted as B)	–
CCC[C@H]1C(=O)N[C@@H](C2CCCCC2)C(=O)N(C)CC(=O)N(C)[C@H]2C/C=C\CCN(C2=O)[C@@H](Cc2ccc(C(F)(F)F)cc2)C(=O)N(C)CC(=O)N[C@@H](CCc2ccc(C(F)(F)F)c(Cl)c2)C(=O)N2C[C@H](OCC)C[C@H]2C(=O)NC2(CC(C)(C)C2)C(=O)N(C)[C@@H](C2CCCC2)C(=O)N(C)[C@H](C(=O)N(C)C)CC(=O)N1C [PP2996]	13.7	A (a compound having 10 or more and less than 20 is denoted as A)	AA (a compound having 20 or more is denoted as AA)	–	–	–
